Key:
[1] = molecular target: T1, rat A1 AR (Rattus norvegicus, UniProt P25099); assay: Radioligand binding assay at rat A1 AR (rat brain cortex) vs. [^3H]CCPA; settings: rat (r); for Ki: rat brain cortex, n = 3; for inhibition at 1.5 µM: read-out: % inhibition of radioligand binding at indicated concentration, A1 vs. [^3H]CCPA, at 1,500 nM
T1 construct: A1 ARs of rat brain cortical membrane; from tissue; host or cells: rat brain cortex membranes
T1 sequence (P25099 1-326): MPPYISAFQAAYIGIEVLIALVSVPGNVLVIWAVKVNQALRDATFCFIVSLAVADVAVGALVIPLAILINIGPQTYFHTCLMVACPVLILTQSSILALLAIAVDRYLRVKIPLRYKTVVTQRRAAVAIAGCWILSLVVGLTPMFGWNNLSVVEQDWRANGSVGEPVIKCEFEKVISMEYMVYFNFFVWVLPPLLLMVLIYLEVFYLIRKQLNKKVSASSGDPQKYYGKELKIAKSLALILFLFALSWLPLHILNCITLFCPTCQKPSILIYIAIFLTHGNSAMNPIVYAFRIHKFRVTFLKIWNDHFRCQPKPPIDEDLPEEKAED
Protocol: (§1) Membrane preparations and radioligand binding assays at rat A1 (rat brain cortex) and rat A2A ARs (rat brain striatum) were performed as previously described (Ozola et al., [2003]; Alnouri et al., [2015]). For assays at human A1, A2A, A2B, and A3 ARs, CHO cell membranes expressing one of the human AR subtypes were used as previously reported (Klotz et al., [1998]; Alnouri et al., [2015]; De Filippo et al., [2016]).
(§2) The synthesized tetrahydropyrazino[2,1-f ]purinediones 13–20 were evaluated in radioligand binding assays for their affinity to A1 ARs of rat brain cortical membrane and to A2A ARs of rat brain striatal membrane preparations. Selected compounds were further investigated for their affinity to human A1 and A2A ARs recombinantly expressed in Chinese hamster ovary (CHO) cells. All compounds were additionally investigated for their affinity to human A2B and A3 ARs recombinantly expressed in CHO cells to determine their AR subtype selectivity. […] It is well known that all xanthine derivatives lacking a ribose moiety, including tricyclic compounds, can only block ARs, but never act as AR agonists; therefore, additional functional studies were not required. […] Potent MAO-B inhibitors were additionally investigated for inhibition of human MAO-A to assess their selectivity. Results are presented in Tables 1–6, and data of standard ligands are included for comparison.

[2] = molecular target: T2, rat A2A AR (Rattus norvegicus, UniProt P30543); assay: Radioligand binding assay at rat A2A AR (rat brain striatum) vs. [^3H]MSX-2; settings: rat (r); for % inhibition of radioligand binding at indicated concentration, A2A vs. [^3H]MSX-2: at 1,000 nM; for Ki: rat brain striatum, n = 3, read-out: Ki ± SEM, A2A vs. [^3H]MSX-2
T2 construct: A2A ARs of rat brain striatal membrane preparations; from tissue; host or cells: rat brain striatum membranes
T2 sequence (P30543 whole entry): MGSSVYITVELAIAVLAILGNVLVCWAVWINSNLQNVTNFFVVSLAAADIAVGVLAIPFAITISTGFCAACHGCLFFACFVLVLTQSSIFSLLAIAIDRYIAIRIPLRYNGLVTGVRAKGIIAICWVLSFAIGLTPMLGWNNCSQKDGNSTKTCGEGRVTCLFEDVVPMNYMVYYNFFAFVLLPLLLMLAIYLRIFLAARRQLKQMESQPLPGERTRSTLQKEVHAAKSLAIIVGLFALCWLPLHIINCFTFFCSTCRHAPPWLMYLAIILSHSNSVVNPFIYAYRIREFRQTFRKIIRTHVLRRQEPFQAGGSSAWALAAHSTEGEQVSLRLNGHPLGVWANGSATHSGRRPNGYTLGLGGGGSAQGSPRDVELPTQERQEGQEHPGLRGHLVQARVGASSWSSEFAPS
Protocol: as §1, §2

[3] = molecular target: T3, human A2B AR (Homo sapiens, UniProt P29275); assay: Radioligand binding assay at human A2B AR vs. [^3H]PSB-603; settings: for Ki: CHO cell membranes, n = 2 (n = 3 where marked a), read-out: Ki ± SEM, A2B vs. [^3H]PSB-603; for inhibition at 1 µM: at 1,000 nM
T3 construct: expressed in transfected cells; host or cells: CHO cells
T3 sequence (P29275 1-332): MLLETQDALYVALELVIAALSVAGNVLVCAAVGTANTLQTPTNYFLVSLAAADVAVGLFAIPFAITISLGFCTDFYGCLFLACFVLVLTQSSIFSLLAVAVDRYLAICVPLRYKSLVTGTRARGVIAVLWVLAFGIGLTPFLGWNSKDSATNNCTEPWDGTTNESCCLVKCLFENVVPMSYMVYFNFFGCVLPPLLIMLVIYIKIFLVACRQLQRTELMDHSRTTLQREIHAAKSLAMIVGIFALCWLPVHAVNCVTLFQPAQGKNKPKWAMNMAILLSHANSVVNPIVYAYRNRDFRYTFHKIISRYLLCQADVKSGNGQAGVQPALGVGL
Protocol: as §1, §2

[4] = molecular target: T4, human A3 AR (Homo sapiens, UniProt P0DMS8); assay: Radioligand binding assay at human A3 AR vs. [^3H]PSB-11; settings: for Ki: CHO cell membranes, n = 2 (n = 3 where marked a), read-out: Ki ± SEM, A3 vs. [^3H]PSB-11; for inhibition at 10 µM: at 10,000 nM, read-out: % inhibition of radioligand binding at indicated concentration, A3 vs. [^3H]PSB-11
T4 construct: expressed in transfected cells; host or cells: CHO cells
T4 sequence (P0DMS8 1-318): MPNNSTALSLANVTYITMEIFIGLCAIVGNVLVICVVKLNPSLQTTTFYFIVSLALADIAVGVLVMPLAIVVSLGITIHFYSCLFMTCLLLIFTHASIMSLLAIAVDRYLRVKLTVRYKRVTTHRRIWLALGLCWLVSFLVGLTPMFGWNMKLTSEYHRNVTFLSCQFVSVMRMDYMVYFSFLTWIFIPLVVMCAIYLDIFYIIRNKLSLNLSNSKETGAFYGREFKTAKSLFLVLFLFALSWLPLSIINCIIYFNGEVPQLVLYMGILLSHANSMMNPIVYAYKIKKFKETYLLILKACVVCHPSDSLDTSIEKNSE
Protocol: as §1, §2

[5] = molecular target: T5, recombinant human MAO-B (Homo sapiens, UniProt P27338); assay: Monoamine oxidase assay (Amplex Red), MAO-B; assay type: biochemical; settings: for inhibition at 10 µM: at 10,000 nM (10 μM), read-out: % inhibition at indicated concentration, Human MAO-B; for IC50: n = 3, read-out: IC50 ± SEM, Human MAO-B
T5 construct: purchased Sigma-Aldrich M7441; host or cells: baculovirus-infected insect cells
T5 sequence (P27338 1-520): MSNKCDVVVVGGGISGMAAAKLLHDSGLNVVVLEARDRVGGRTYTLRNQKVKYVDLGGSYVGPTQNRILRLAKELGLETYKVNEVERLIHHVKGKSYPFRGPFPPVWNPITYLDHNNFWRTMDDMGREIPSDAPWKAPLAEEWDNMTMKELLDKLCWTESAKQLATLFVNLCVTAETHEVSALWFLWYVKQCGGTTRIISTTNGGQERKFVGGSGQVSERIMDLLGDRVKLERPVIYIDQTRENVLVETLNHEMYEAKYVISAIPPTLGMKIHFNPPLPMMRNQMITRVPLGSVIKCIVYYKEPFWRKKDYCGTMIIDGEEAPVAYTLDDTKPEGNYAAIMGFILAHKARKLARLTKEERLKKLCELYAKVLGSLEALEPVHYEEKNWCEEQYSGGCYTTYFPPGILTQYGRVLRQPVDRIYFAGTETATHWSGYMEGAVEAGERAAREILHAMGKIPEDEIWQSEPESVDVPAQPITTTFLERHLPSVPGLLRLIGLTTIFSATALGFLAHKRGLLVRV
Protocol: The determination of MAO-A and MAO-B inhibition was performed using commercially available recombinant human MAO-A and MAO-B enzymes expressed in baculovirus-infected insects sells (Sigma-Aldrich, M7316 and M7441) applying the commercially available Amplex® Red monoamine oxidase assay kit (Invitrogen A12214). The assays were performed as previously described. The determination of rat MAO-B inhibition was performed using mitochondrial-enriched fractions from male Sprague Dawley rat livers. […]

[6] = read-out: % inhibition of radioligand binding at indicated concentration, A2B vs. [^3H]PSB-603

| SMILES | Ki [1] [nM] | inhibition at 1.5 µM [1] [%] | % inhibition of radioligand binding at indicated concentration, A2A vs. [^3H]MSX-2 [2] [%] | Ki [2] [nM] | Ki [3] [nM] | inhibition at 1 µM [3, 6] [%] | Ki [4] [nM] | inhibition at 10 µM [4] [%] | inhibition at 10 µM [5] [%] | IC50 [5] [nM] | inhibition at 0.1 µM ([3]; at 100 nM, read-out: % inhibition of radioligand binding at indicated concentration, A2B vs. [^3H]PSB-603) [%] | inhibition at 0.3 µM ([3]; at 300 nM, read-out: % inhibition of radioligand binding at indicated concentration, A2B vs. [^3H]PSB-603) [%] |
| --- | --- | --- | --- | --- | --- | --- | --- | --- | --- | --- | --- | --- |
| Cn1c(=O)[nH]c(=O)c2c1nc1n2CCN(Cc2cccc(C(F)(F)F)c2)C1 [Compound 13b, 1-methyl-8-(3-(trifluoromethyl)benzyl)-6,7,8,9-tetrahydropyrazino[2,1-f]purine-2,4(1H,3H)-dione] | > 1500 | -1 | 5 | > 1000 | > 1000 | 2 | > 10000 | 35 | 14 | > 10000 |  |  |
| C#CCn1c(=O)c2c(nc3n2CCN(c2ccc(OC)c(OC)c2)C3)n(CC)c1=O [Compound 20d, 8-(3,4-dimethoxyphenyl)-1-ethyl-3-propargyl-6,7,8,9-tetrahydropyrazino[2,1-f]purine-2,4(1H,3H)-dione] | 1670 |  |  | 1580 | > 1000 | 8 | 3640 |  | 13 | > 10000 |  |  |
| C#CCn1c(=O)c2c(nc3n2CCN(c2ccccc2F)C3)n(CC)c1=O [Compound 20a, 1-ethyl-8-(2-fluorophenyl)-3-propargyl-6,7,8,9-tetrahydropyrazino[2,1-f]purine-2,4(1H,3H)-dione] | 1140 |  |  | 1380 | > 1000 | 8 | 4270 |  | 29 | > 10000 |  |  |
| CCn1c(=O)c2c(nc3n2CCN(Cc2ccc(C(F)(F)F)cc2)C3)n(C)c1=O [Compound 14f, 3-ethyl-1-methyl-8-(4-(trifluoromethyl)benzyl)-6,7,8,9-tetrahydropyrazino[2,1-f]purine-2,4(1H,3H)-dione] | > 1500 | 9 | 7 | > 1000 | > 100 |  | 18600 |  | 32 | > 10000 | 1 |  |
| C#CCn1c(=O)c2c(nc3n2CCN(CCc2ccc(OC)cc2)C3)n(CC)c1=O [Compound 20k, 1-ethyl-8-(4-methoxyphenethyl)-3-propargyl-6,7,8,9-tetrahydropyrazino[2,1-f]purine-2,4(1H,3H)-dione] | 1600 |  |  | 2700 | > 1000 | 10 | > 10000 | 22 | 25 | > 10000 |  |  |
| Cn1c(=O)[nH]c(=O)c2c1nc1n2CCN(CCc2cccc(Cl)c2)C1 [Compound 13c, 8-(3-chlorophenethyl)-1-methyl-6,7,8,9-tetrahydropyrazino[2,1-f]purine-2,4(1H,3H)-dione] | > 1500 | 3 | 1 | > 1000 | > 1000 | 18 | > 10000 | 49 | 54 | ~10000 |  |  |
| C#CCn1c(=O)c2c(nc3n2CCN(CCc2ccc(OC)c(OC)c2)C3)n(CC)c1=O [Compound 20l] | 3800 |  |  | 7400 | > 1000 | 9 | > 10000 | 12 | 3 | > 10000 |  |  |
| Cn1c(=O)[nH]c(=O)c2c1nc1n2CCN(CCc2cccc(C(F)(F)F)c2)C1 [Compound 13e, 1-methyl-8-(3-(trifluoromethyl)phenethyl)-6,7,8,9-tetrahydropyrazino[2,1-f]purine-2,4(1H,3H)-dione] | > 1500 | 9 | 4 | > 1000 | > 300 |  | > 10000 | 39 | 47 | ~10000 |  | 8 |
| CCn1c(=O)c2c(nc3n2CCN(Cc2ccc(Cl)cc2C(F)(F)F)C3)n(CC)c1=O [Compound 15o, 8-(4-chloro-2-(trifluoromethyl)benzyl)-1,3-diethyl-6,7,8,9-tetrahydropyrazino[2,1-f]purine-2,4(1H,3H)-dione] | > 1500 | 41 | 19 | > 1000 | > 1000 | 16 | 1690 |  | 5 | > 10000 |  |  |
| Cn1c(=O)[nH]c(=O)c2c1nc1n2CCN(CCc2cccc(Br)c2)C1 [Compound 13d, 8-(3-bromophenethyl)-1-methyl-6,7,8,9-tetrahydropyrazino[2,1-f]purine-2,4(1H,3H)-dione] | > 1500 | 1 | 15 | > 1000 | > 1000 | 1 | ~10000 | 45 |  |  |  |  |
| CCn1c(=O)c2c(nc3n2CCN(Cc2cc(C(F)(F)F)cc(C(F)(F)F)c2)C3)n(CC)c1=O [Compound 15q, 8-(3,5-bis(trifluoromethyl)benzyl)-1,3-diethyl-6,7,8,9-tetrahydropyrazino[2,1-f]purine-2,4(1H,3H)-dione] | > 1500 | 6 | 13 | > 1000 | > 1000 | 7 | > 10000 | 40 | 27 | > 10000 |  |  |

Source: PMC6028563, “Probing Substituents in the 1- and 3-Position: Tetrahydropyrazino-Annelated Water-Soluble Xanthine Derivatives as Multi-Target Drugs With Potent Adenosine Receptor Antagonistic Activity” (Frontiers in Chemistry, 2018)
